Structures can show the parent of a compound that is named as a salt.
How the values were obtained:
Conditions in all cases: incubation time: 27 h, anaerobic, 37 °C
[1] = test system: Klebsiella aerogenes DSM 30053; test: growth (OD595) fold change vs plate DMSO controls (fold change (ratio)); higher = more growth
[2] = test system: Ruminococcus gnavus DSM 108212; test: as above
[3] = test system: Ruminococcus gnavus DSM 108212; test: fold change of Tryptamine concentration vs plate DMSO controls (fold change (ratio)); higher = more amine produced
[4] = test system: Ruminococcus gnavus DSM 108212; test: fold change of 2-Phenylethylamine concentration vs plate DMSO controls (fold change (ratio)); higher = more amine produced
[5] = test system: Klebsiella aerogenes DSM 30053; test: fold change of Cadaverine concentration vs plate DMSO controls (fold change (ratio)); higher = more amine produced
[6] = test system: Klebsiella aerogenes DSM 30053; test: fold change of Putrescine concentration vs plate DMSO controls (fold change (ratio)); higher = more amine produced
[7] = test system: Klebsiella aerogenes DSM 30053; test: fold change of Histamine concentration vs plate DMSO controls (fold change (ratio)); higher = more amine produced
Procedure: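 Dose-response follow-up: bacteria (E. coli IAI1, K. aerogenes DSM 30053, C. sporogenes DSM 1664, R. gnavus DSM 108212) were grown anaerobically in mGAM at 37 °C for 27 h with compound at 0.6125-20 µM. Amines were measured in the whole culture by targeted LC-MS/MS. Metabolite fold change and OD595 fold change are relative to plate DMSO controls; n=2 biological replicates. OD fold changes are not clipped, so slightly negative values mean no growth.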

[8] = test system: Clostridium sporogenes DSM 1664; test: growth (OD595) fold change vs plate DMSO controls (fold change (ratio)); higher = more growth
[9] = test system: Clostridium sporogenes DSM 1664; test: fold change of Tryptamine concentration vs plate DMSO controls (fold change (ratio)); higher = more amine produced
Escherichia coli IAI1 [10] = test: growth (OD595) fold change vs plate DMSO controls (fold change (ratio)); higher = more growth
Escherichia coli IAI1 [11] = test: fold change of Cadaverine concentration vs plate DMSO controls (fold change (ratio)); higher = more amine produced
Escherichia coli IAI1 [12] = test: fold change of Putrescine concentration vs plate DMSO controls (fold change (ratio)); higher = more amine produced

N[C@@H]1CCCCN(c2c(F)cc3c(=O)c(C(=O)O)cn(C4CC4)c3c2Cl)C1 [Besifloxacin hydrochloride]
Conditions	fold change of 2-Phenylethylamine concentration, [4]	fold change of Cadaverine concentration, [5]	fold change of Histamine concentration, [7]	fold change of Putrescine concentration, [6]	fold change of Tryptamine concentration, [3]	growth, [1]	growth, [2]
0.6125 µM	1.11	0.955	1.18	1.02	1.36	1.32	1.01
1.25 µM	0.219	1.03	0.938	1.22	0.415	0.476	0.127
2.5 µM	0.487	1.02	0.188	1.26	0.746	0.277	0.193
5 µM	0.44	1.02	0.166	1.36	0.657	0.336	0.207
10 µM	0.321	1	0.185	1.43	0.451	0.358	0.22
20 µM	0.296	0.981	0.241	1.4	0.385	0.302	0.182

Oc1c(Cl)cc(Cl)cc1Sc1cc(Cl)cc(Cl)c1O [Bithionol]
Conditions	fold change of Tryptamine concentration, [9]	growth, [8]
0.6125 µM	1.09	1.23
1.25 µM	1.06	1.2
2.5 µM	1.07	0.906
5 µM	0.891	0.716
10 µM	0.0764	0.142
20 µM	0.0165	-0.0314

COC(=O)N/N=C/c1c[n+]([O-])c2ccccc2[n+]1[O-] [Carbadox]
Conditions	fold change of Tryptamine concentration, [9]	growth, [8]
0.6125 µM	0.852	1.09
1.25 µM	0.79	0.89
2.5 µM	0.724	0.999
5 µM	0.739	1.04
10 µM	0.774	0.742
20 µM	0.343	0.333

Cn1nnnc1SCC1=C(C(=O)O)N2C(=O)[C@@H](NC(=O)[C@H](O)c3ccccc3)[C@H]2SC1 [Cefamandole sodium salt]
Conditions	fold change of 2-Phenylethylamine concentration, [4]	fold change of Tryptamine concentration, [3]	growth, [2]
0.6125 µM	0.85	0.992	1.26
1.25 µM	0.767	0.847	1.29
2.5 µM	0.996	1.2	1.53
5 µM	0.492	0.675	0.889
10 µM	0.244	0.357	0.479
20 µM	0.178	0.263	0.481

CO[C@@]1(NC(=O)C2SC(=C(C(N)=O)C(=O)O)S2)C(=O)N2C(C(=O)O)=C(CSc3nnnn3C)CS[C@@H]21 (stereo not given in full) [Cefotetan]
Conditions	fold change of Cadaverine concentration, Escherichia coli IAI1 [11]	fold change of Putrescine concentration, Escherichia coli IAI1 [12]	growth, Escherichia coli IAI1 [10]
0.6125 µM	1.08	0.781	0.849
1.25 µM	1.22	1.01	0.812
2.5 µM	1.18	0.823	0.978
5 µM	2.07	2.04	0.728
10 µM	2.24	2.6	0.123
20 µM	2.29	1.48	0.0366

CN(C)CCn1nnnc1SCC1=C(C(=O)O)N2C(=O)[C@@H](NC(=O)Cc3csc(N)n3)[C@H]2SC1 [Cefotiam hydrochloride]
Conditions	fold change of Cadaverine concentration, Escherichia coli IAI1 [11]	fold change of Putrescine concentration, Escherichia coli IAI1 [12]	fold change of Tryptamine concentration, [9]	growth, Escherichia coli IAI1 [10]	growth, [8]
0.6125 µM	1.29	0.767	1.02	0.969	0.8
1.25 µM	1.27	0.89	0.833	1.03	0.293
2.5 µM	1.71	2.91	0.0314	0.906	0.273
5 µM	1.34	0.839	0.0234	-0.0152	-0.0402
10 µM	0.568	0.15	0.025	-0.055	-0.0341
20 µM	0.594	0.148	0.0225	-0.0576	-0.0328

Cc1cc(O)c(C(=O)N[C@@H](C(=O)N[C@@H]2C(=O)N3C(C(=O)O)=C(CSc4nnnn4C)CS[C@H]23)c2ccc(O)cc2)cn1 [Cefpiramide]
Conditions	fold change of 2-Phenylethylamine concentration, [4]	fold change of Cadaverine concentration, Escherichia coli IAI1 [11]	fold change of Putrescine concentration, Escherichia coli IAI1 [12]	fold change of Tryptamine concentration, [3]	growth, Escherichia coli IAI1 [10]	growth, [2]
0.6125 µM	0.656	1.44	0.827	0.773	0.836	1.28
1.25 µM	0.288	1.57	1.34	0.388	0.802	0.921
2.5 µM	0.158	1.97	3.19	0.226	0.44	0.902
5 µM	0.132	2.19	2.27	0.183	0.259	0.827
10 µM	0.107	2.26	1.28	0.154	0.00195	0.698
20 µM	0.131	2.23	0.966	0.147	-0.0159	0.575

O=C(N[C@H](CO)[C@H](O)c1ccc([N+](=O)[O-])cc1)C(Cl)Cl [Chloramphenicol]
Conditions	fold change of 2-Phenylethylamine concentration, [4]	fold change of Tryptamine concentration, [3]	growth, [2]
0.6125 µM	1	1.05	0.858
1.25 µM	0.839	0.822	0.8
2.5 µM	0.648	0.595	0.814
5 µM	0.601	0.577	0.765
10 µM	0.477	0.506	0.647
20 µM	0.174	0.175	0.204

Cc1ncc([N+](=O)[O-])n1C [Dimetridazole]
Conditions	fold change of Tryptamine concentration, [9]	growth, [8]
0.6125 µM	0.869	1.15
1.25 µM	0.772	1.1
2.5 µM	0.685	0.842
5 µM	0.184	1.1
10 µM	0.0282	-0.0122
20 µM	0.0226	-0.0151

C[C@@H](O)[C@H]1C(=O)N2C(C(=O)O)=C(S[C@@H]3CN[C@H](CNS(N)(=O)=O)C3)[C@H](C)[C@H]12 [Doripenem monohydrate]
Conditions	fold change of 2-Phenylethylamine concentration, [4]	fold change of Tryptamine concentration, [3]	growth, [2]
0.6125 µM	0.242	0.35	1.74
1.25 µM	0.158	0.206	0.893
2.5 µM	0.118	0.16	2.1
5 µM	0.119	0.15	0.381
10 µM	0.0974	0.121	0.355
20 µM	0.111	0.128	0.36

CS(=O)(=O)c1ccc([C@@H](O)[C@@H](CF)NC(=O)C(Cl)Cl)cc1 [Florfenicol]
Conditions	fold change of 2-Phenylethylamine concentration, [4]	fold change of Tryptamine concentration, [3]	fold change of Tryptamine concentration, [9]	growth, [2]	growth, [8]
0.6125 µM	0.644	0.662	0.86	0.826	1.14
1.25 µM	0.572	0.537	0.636	0.757	0.685
2.5 µM	0.509	0.516	0.0416	0.681	0.0218
5 µM	0.311	0.393	0.0331	0.386	-0.0331
10 µM	0.203	0.261	0.0302	0.252	-0.0315
20 µM	0.199	0.241	0.0273	0.0641	-0.0323

CC1CCc2cc(F)cc3c(=O)c(C(=O)O)cn1c23 (stereo not given) [Flumequine]
Conditions	fold change of Tryptamine concentration, [9]	growth, [8]
0.6125 µM	1.03	1.02
1.25 µM	1.06	1.04
2.5 µM	1.11	1
5 µM	0.996	0.948
10 µM	0.569	0.659
20 µM	0.0662	0.202

COc1c(N2C[C@@H]3CCCN[C@@H]3C2)c(F)cc2c(=O)c(C(=O)O)cn(C3CC3)c12 [Moxifloxacin]
Conditions	fold change of 2-Phenylethylamine concentration, [4]	fold change of Tryptamine concentration, [3]	growth, [2]
0.6125 µM	2.13	2.33	0.813
1.25 µM	2.4	2.83	0.562
2.5 µM	2.64	3.17	0.528
5 µM	2.66	3.27	0.491
10 µM	1.29	2	0.279
20 µM	0.274	0.511	0.119

OC[C@H]1O[C@@H](n2cnc3cncnc32)[C@H](O)[C@@H]1O [Nebularine]
Conditions	fold change of 2-Phenylethylamine concentration, [4]	fold change of Tryptamine concentration, [3]	growth, [2]
0.6125 µM	0.725	0.84	0.842
1.25 µM	0.65	0.755	0.629
2.5 µM	0.367	0.503	0.339
5 µM	0.321	0.464	0.336
10 µM	0.413	0.552	0.336
20 µM	0.434	0.585	0.333

CCn1cc(C(=O)O)c(=O)c2cc(F)c(N3CCNCC3)cc21 [Norfloxacin]
Conditions	fold change of 2-Phenylethylamine concentration, [4]	fold change of Cadaverine concentration, [5]	fold change of Histamine concentration, [7]	fold change of Putrescine concentration, [6]	fold change of Tryptamine concentration, [3]	fold change of Tryptamine concentration, [9]	growth, [1]	growth, [2]	growth, [8]
0.6125 µM	1.3	0.969	1.18	1.02	1.44	0.911	1.14	1.36	1.02
1.25 µM	1.98	1.02	0.775	1.21	2.07	0.589	0.479	0.823	0.736
2.5 µM	1.23	1	0.571	1.29	1.45	0.0459	0.363	0.713	0.00966
5 µM	1.2	1	0.19	1.31	1.32	0.035	0.384	0.628	0.0175
10 µM	1.25	1.01	0.262	1.37	1.41	0.0429	0.385	0.607	0.0423
20 µM	1.38	1	0.237	1.37	1.51	0.0345	0.256	0.425	0.00666

CO[C@H]1/C=C/O[C@@]2(C)Oc3c(C)c(O)c4c(O)c(c5c(nc6cc(C)ccn65)c4c3C2=O)NC(=O)/C(C)=C\C=C\[C@H](C)[C@H](O)[C@@H](C)[C@@H](O)[C@@H](C)[C@H](OC(C)=O)[C@@H]1C [Rifaximin]
Conditions	fold change of Tryptamine concentration, [9]	growth, [8]
0.6125 µM	0.601	1.05
1.25 µM	0.0574	0.257
2.5 µM	0.03	-0.0262
5 µM	0.0292	-0.0255
10 µM	0.0294	-0.0254
20 µM	0.0294	-0.0277

Reference: the supplement of paper PMC12494721
